Measurements as given in patent US20070251020A1, “Fungicidal compositions and methods of using the same” (priority 2006, published 2007).

Key:
Format in all cases: cell-based
[1] = system: Aspergillus niger; test: Screening for anti-fungal activity in mineral-salts glucose medium, visual growth / no growth; set-up: key: −: no growth; +: slight growth; ++: moderate growth; +++: heavy growth; ++++: very heavy growth; settings: 25° C.
Method: The pH of the medium was adjusted to 6 with 1N NaOH. The medium was distributed in 50 ml amounts into 250 ml flasks and autoclaved at 121° C. for 20 minutes. The test fungus, Aspergillus niger, was grown on potato dextrose agar for 7-10 days. A spore/hyphal suspension of the fungus was prepared by washing down the spores/hyphae from the slant with sterile saline into a bottle containing 30 ml sterile saline and shaken. The chemicals were added to the sterile mineral-salts medium in the desired concentrations, and each flask was inoculated with a suspension of the fungal suspension to give a final fungal count of approximately 1×10^6 cfu/ml. The inoculated samples were incubated at 25° C. and inspected visually for growth or no growth at 7 and 14 days.

[2] = system: Aspergillus niger; test: Wet blue pieces dipped in active substance, exposed to airborne spores in petri-dish growth chambers; set-up: key to GROWTH Wk. 1 / GROWTH Wk. 2 / GROWTH Wk. 3 / GROWTH Wk. 4 / GROWTH Wk. 5 / GROWTH Wk. 6 / GROWTH Wk. 7: 0: no growth on surface; +: less than half of surface covered with mold; ++: about half of surface covered with mold; +++: about ¾ of surface covered with mold; ++++: the whole surface covered with mold; settings: for performance against Aspergillus niger on wet blue compared with the controls: wet blue dipped in 0.5% or 0.25% (by wt) mixtures
Method: Sodium omadine was included among the substances tested, as a positive control. The test organism, Aspergillus niger, was grown on potato dextrose agar for 5-days in petri-dishes. The wet blue pieces were placed on top of pieces of bent glass rod, thereby preventing direct contact with the “lawn” of Aspergillus niger. Thus, exposure of the wet blue to Aspergillus niger was limited to airborne spores, simulating one of the most common modes of exposure experienced in practice. For each active substance and concentration studied, wet blue pieces were suspended both grain side up and flesh side up. A bottom half of a petri-dish was used as a cover to provide a growth chamber for each sample. These growth chambers were incubated at 25° C. and evaluated weekly to determine the degree of fungal infestation on the wet blue surfaces.

[3] = system: Penicillium sp.; test: Wet blue pieces dipped in active substance, mold exposure in petri-dishes, industrial isolate; set-up: key to GROWTH Wk. 1 / GROWTH Wk. 2 / GROWTH Wk. 3 / GROWTH Wk. 4 / GROWTH Wk. 5 / GROWTH Wk. 7 / GROWTH Wk. 8 / GROWTH Wk. 9: 0: no growth on surface; +: less than half of surface covered with mold; ++: about half of surface covered with mold; +++: about ¾ of surface covered with mold; ++++: the whole surface covered with mold
Method: One inch square pieces of wet blue that had not been previously treated with fungicide were dipped in either 0.5% or 0.25% (by wt) mixtures of each active substance in water. Sodium omadine was included among the substances tested, as a positive control. The test organism, Aspergillus niger, was grown on potato dextrose agar for 5-days in petri-dishes. The wet blue pieces were placed on top of pieces of bent glass rod, thereby preventing direct contact with the “lawn” of Aspergillus niger. Thus, exposure of the wet blue to Aspergillus niger was limited to airborne spores, simulating one of the most common modes of exposure experienced in practice. For each active substance and concentration studied, wet blue pieces were suspended both grain side up and flesh side up. A bottom half of a petri-dish was used as a cover to provide a growth chamber for each sample. These growth chambers were incubated at 25° C. and evaluated weekly to determine the degree of fungal infestation on the wet blue surfaces.
Some of the minimum risk fungicides identified above were further tested against an industrial isolate of Penicillium sp, as shown in Table 3. This particular “wild strain” of Penicillium was isolated from commercial wet blue that was seriously contaminated with mold. […] Once again, one inch square pieces of wet blue were dipped in mixtures of active substances in water—this time at 1% and 0.5% concentrations. The mold exposure was carried out in petri-dishes as in EXAMPLE 2, but with Penicillium sp. as the test organism.

Compound: CCC(=O)OCCc1ccccc1 [2-Phenylethyl propionate]
- GROWTH 7-days ([1]; 1% by wt.): −
- GROWTH 14-days ([1]; 1% by wt.): −
- performance against Aspergillus niger on wet blue compared with the controls ([2]; petri-dishes): no better than the controls

Compound: O=C(O)CC(O)(CC(=O)O)C(=O)O [Citric acid]
- GROWTH 7-days ([1]; 0.5% by wt.): −
- GROWTH 14-days ([1]; 0.5% by wt.): −
- GROWTH 7-days ([1]; 1% by wt.): −
- GROWTH 14-days ([1]; 1% by wt.): −

Compound: C=CCc1ccc(O)c(OC)c1 [Eugenol]
- GROWTH 7-days ([1]; 0.5% by wt.): −
- GROWTH 14-days ([1]; 0.5% by wt.): −
- GROWTH 7-days ([1]; 1% by wt.): −
- GROWTH 14-days ([1]; 1% by wt.): −
- performance against Aspergillus niger on wet blue compared with the controls ([2]; petri-dishes): no better than the controls

Compound: CC(C)=CCC/C(C)=C/CO [Geraniol]
- GROWTH 7-days ([1]; 0.5% by wt.): −
- GROWTH 14-days ([1]; 0.5% by wt.): −
- GROWTH 7-days ([1]; 1% by wt.): −
- GROWTH 14-days ([1]; 1% by wt.): −
- performance against Aspergillus niger on wet blue compared with the controls ([2]; petri-dishes): no better than the controls

Compound: C/C=C/C=C/C(=O)[O-].[K+] [Potassium sorbate]
- GROWTH 7-days ([1]; 0.5% by wt.): −
- GROWTH 14-days ([1]; 0.5% by wt.): +++
- GROWTH 7-days ([1]; 1% by wt.): −
- GROWTH 14-days ([1]; 1% by wt.): −

Compound: O=C([O-])c1ccccc1.[Na+] [Sodium benzoate]
- GROWTH 7-days ([1]; 0.5% by wt.): ++
- GROWTH 7-days ([1]; 1% by wt.): +

Compound: CC(=O)c1c([O-])cc(C)oc1=O.[Na+] [Sodium dehydroacetate, reference compound]
- GROWTH 7-days ([1]; 0.5% by wt.): −
- GROWTH 14-days ([1]; 0.5% by wt.): −
- GROWTH 7-days ([1]; 1% by wt.): −
- GROWTH 14-days ([1]; 1% by wt.): −

Compound: CCCCCCCCCCCCOS(=O)(=O)[O-].[Na+] [Sodium lauryl sulfate]
- GROWTH Wk. 1 ([3]; 0.5% (flesh)): 0
- GROWTH Wk. 2 ([3]; 0.5% (flesh)): 0
- GROWTH Wk. 3 ([3]; 0.5% (flesh)): 0
- GROWTH Wk. 4 ([3]; 0.5% (flesh)): +
- GROWTH Wk. 5 ([3]; 0.5% (flesh)): ++
- GROWTH Wk. 7 ([3]; 0.5% (flesh)): ++++
- GROWTH Wk. 8 ([3]; 0.5% (flesh)): ++++
- GROWTH Wk. 9 ([3]; 0.5% (flesh)): ++++
- GROWTH Wk. 1 ([3]; 0.5% (grain)): 0
- GROWTH Wk. 2 ([3]; 0.5% (grain)): 0
- GROWTH Wk. 3 ([3]; 0.5% (grain)): +
- GROWTH Wk. 4 ([3]; 0.5% (grain)): ++++
- GROWTH Wk. 5 ([3]; 0.5% (grain)): ++++
- GROWTH Wk. 7 ([3]; 0.5% (grain)): ++++
- GROWTH Wk. 8 ([3]; 0.5% (grain)): ++++
- GROWTH Wk. 9 ([3]; 0.5% (grain)): ++++
- GROWTH Wk. 1 ([3]; 1% (flesh)): 0
- GROWTH Wk. 2 ([3]; 1% (flesh)): 0
- GROWTH Wk. 3 ([3]; 1% (flesh)): 0
- GROWTH Wk. 4 ([3]; 1% (flesh)): 0
- GROWTH Wk. 5 ([3]; 1% (flesh)): +
- GROWTH Wk. 7 ([3]; 1% (flesh)): ++++
- GROWTH Wk. 8 ([3]; 1% (flesh)): ++++
- GROWTH Wk. 9 ([3]; 1% (flesh)): ++++
- GROWTH Wk. 1 ([3]; 1% (grain)): 0
- GROWTH Wk. 2 ([3]; 1% (grain)): 0
- GROWTH Wk. 3 ([3]; 1% (grain)): 0
- GROWTH Wk. 4 ([3]; 1% (grain)): 0
- GROWTH Wk. 5 ([3]; 1% (grain)): 0
- GROWTH Wk. 7 ([3]; 1% (grain)): 0
- GROWTH Wk. 8 ([3]; 1% (grain)): 0
- GROWTH Wk. 9 ([3]; 1% (grain)): 0
- resistance of treated wet blue compared with unprotected controls ([3]; wet blue dipped at 1% and 0.5%, Prosan 18 as positive control): substantially improved over the unprotected controls
- GROWTH 7-days ([1]; 0.5% by wt.): −
- GROWTH 14-days ([1]; 0.5% by wt.): −
- GROWTH 7-days ([1]; 1% by wt.): −
- GROWTH 14-days ([1]; 1% by wt.): −
- GROWTH Wk. 1 ([2]; 0.25% (flesh)): 0
- GROWTH Wk. 2 ([2]; 0.25% (flesh)): 0
- GROWTH Wk. 3 ([2]; 0.25% (flesh)): 0
- GROWTH Wk. 4 ([2]; 0.25% (flesh)): 0
- GROWTH Wk. 5 ([2]; 0.25% (flesh)): 0
- GROWTH Wk. 6 ([2]; 0.25% (flesh)): 0
- GROWTH Wk. 7 ([2]; 0.25% (flesh)): ++
- GROWTH Wk. 1 ([2]; 0.25% (grain)): 0
- GROWTH Wk. 2 ([2]; 0.25% (grain)): 0
- GROWTH Wk. 3 ([2]; 0.25% (grain)): 0
- GROWTH Wk. 4 ([2]; 0.25% (grain)): 0
- GROWTH Wk. 5 ([2]; 0.25% (grain)): 0
- GROWTH Wk. 6 ([2]; 0.25% (grain)): 0
- GROWTH Wk. 7 ([2]; 0.25% (grain)): ++
- GROWTH Wk. 1 ([2]; 0.5% (flesh)): 0
- GROWTH Wk. 2 ([2]; 0.5% (flesh)): 0
- GROWTH Wk. 3 ([2]; 0.5% (flesh)): 0
- GROWTH Wk. 4 ([2]; 0.5% (flesh)): 0
- GROWTH Wk. 5 ([2]; 0.5% (flesh)): 0
- GROWTH Wk. 6 ([2]; 0.5% (flesh)): 0
- GROWTH Wk. 7 ([2]; 0.5% (flesh)): 0
- GROWTH Wk. 1 ([2]; 0.5% (grain)): 0
- GROWTH Wk. 2 ([2]; 0.5% (grain)): 0
- GROWTH Wk. 3 ([2]; 0.5% (grain)): 0
- GROWTH Wk. 4 ([2]; 0.5% (grain)): 0
- GROWTH Wk. 5 ([2]; 0.5% (grain)): 0
- GROWTH Wk. 6 ([2]; 0.5% (grain)): 0
- GROWTH Wk. 7 ([2]; 0.5% (grain)): +
- duration of protection of wet blue ([2]; at the concentration tested, petri-dishes): six to seven

Compound: [Na+].[O-][n+]1ccccc1[S-] [Sodium omadine, reference compound]
- GROWTH Wk. 1 ([2]; 0.05% (flesh)): 0
- GROWTH Wk. 2 ([2]; 0.05% (flesh)): 0
- GROWTH Wk. 3 ([2]; 0.05% (flesh)): 0
- GROWTH Wk. 4 ([2]; 0.05% (flesh)): 0
- GROWTH Wk. 5 ([2]; 0.05% (flesh)): 0
- GROWTH Wk. 6 ([2]; 0.05% (flesh)): 0
- GROWTH Wk. 7 ([2]; 0.05% (flesh)): 0
- GROWTH Wk. 1 ([2]; 0.05% (grain)): 0
- GROWTH Wk. 2 ([2]; 0.05% (grain)): 0
- GROWTH Wk. 3 ([2]; 0.05% (grain)): 0
- GROWTH Wk. 4 ([2]; 0.05% (grain)): 0
- GROWTH Wk. 5 ([2]; 0.05% (grain)): 0
- GROWTH Wk. 6 ([2]; 0.05% (grain)): 0
- GROWTH Wk. 7 ([2]; 0.05% (grain)): 0

Compound: O=C([O-])c1ccccc1O.[Na+] [Sodium salicylate, reference compound]
- GROWTH 7-days ([1]; 0.5% by wt.): ++++
- GROWTH 7-days ([1]; 1% by wt.): ++++
